Measurements published in article PMC9415894, “Development of Cross-Reactive Antibodies for the Identification and Treatment of Synthetic Cannabinoid Receptor Agonist Toxicity” (Vaccines, 2022).

Legend:
Format in all cases: binding, mice
[1] = test system: antibodies generated from vaccination with hapten 2; assay: Competitive ELISA, day 35 pooled sera of hapten 2 vaccine group; conditions: for % Inhibition, HAPTEN 2: SCRA at 10 μM, day 35 pooled sera
Protocol: (§1) Vaccination: Vaccine formulation consisted of our bioconjugates at 1 mg/mL (100 μg/mouse), Alum (50 μg/mouse) and a 1 mg/mL CpG ODN 1826 (50 μg/mouse) in 1X PBS solution. Vaccines were shaken at 4 °C for 45 min prior to animal use. Mock vaccines consisted of the same components with the bioconjugate replaced with native KLH. All animals were vaccinated on day zero and received two boosts, one on day 14 and one on day 28. Sera was collected from each animal on days 21 and 35 via retroorbital blood draws.
(§2) Antibody Titers: Costar® 96-well plates were coated with 25 μL of a 5 μg/mL solution of hapten-BSA conjugate and incubated overnight at 37 °C. Plates were then methanol fixed and non-specific protein binding was blocked with 5% Blotto for 30 min. Pooled sera from either day 21 (1:100 in 5% blotto) or 35 (1:400) were added and serially diluted across the plate before incubating at 37 °C for 60 min. Plates were then washed with 1X PBS prior to the addition of secondary antibody conjugated to horse-radish peroxidase, which incubated at 37 °C for 30 min. Equal parts tetramethylbenzidine and hydrogen peroxide (50 μL) were added to each well and reacted for 15 min before being quenched with 50 μL of 2M sulfuric acid. Optical densities were determined at 450 nm using MiniMax 300 plate reader (Molecular Devices). Lastly, midpoint titers were calculated from the % optical density versus log(dilution) using the log(inhibition) vs response variable slope equation on GraphPad Prism v9 (San Diego, CA, USA).
(§3) Competitive ELISA: Costar® 96-well plates were coated as described in the antibody titer section. After the plates are blocked, 25 μL of a 1:titer solution of each BSA-hapten conjugate is added to every well. Equal volume of a 40 μM solution of each SCRA is then added to column one, and 1:2 serially diluted concentrations added across the wells. Optical densities were determined as in titer experiments, and percent inhibitions were evaluated with GraphPad Prism 9 as in titer experiments.

[2] = test system: antibodies generated following vaccination with hapten 4; assay: Competitive ELISA, day 35 pooled sera of hapten 4 vaccine group; conditions: for % Inhibition, HAPTEN 4: SCRA at 10 μM; for % Inhibition, HAPTEN 4 / IC50: day 35 pooled sera; for IC50: 11 concentrations; for binding by hapten 4 antibodies (in words): day 35 sera
Protocol: as §1, §2, §3

[3] = test system: antibodies generated following vaccination with hapten 3; assay: Competitive ELISA, day 35 pooled sera of hapten 3 vaccine group; conditions: for % Inhibition, HAPTEN 3: SCRA at 10 μM; for % Inhibition, HAPTEN 3 / IC50: day 35 pooled sera; for IC50: 11 concentrations; for binding by hapten 3 antibodies (in words): day 35 sera
Protocol: as §1, §2, §3

[4] = test system: antibodies generated from vaccination with hapten 1; assay: Competitive ELISA, day 35 pooled sera of hapten 1 vaccine group; conditions: for % Inhibition, HAPTEN 1: SCRA at 10 μM; for % Inhibition, HAPTEN 1 / IC50: day 35 pooled sera; for IC50: 11 concentrations; for reactivity of hapten 1 antibodies (in words): day 35 sera
Protocol: as §1, §2, §3

Structure (SMILES): CCCCCn1cc(C(=O)c2cccc3ccccc23)c2ccccc21 [Compound 1, JWH-018]
- % Inhibition, HAPTEN 2 [1]: 17.7%
- % Inhibition, HAPTEN 4 [2]: 10.9%
- % Inhibition, HAPTEN 3 [3]: 14.6%
- % Inhibition, HAPTEN 1 [4]: 60.0%
- IC50 [4]: 5540 nM
- reactivity of hapten 1 antibodies (in words) [4]: micromolar

Structure (SMILES): O=C(c1cccc2ccccc12)c1cn(CCCCCF)c2ccccc12 [Compound 2, AM-2201]
- % Inhibition, HAPTEN 2 [1]: 29.5%
- % Inhibition, HAPTEN 4 [2]: 14.4%
- % Inhibition, HAPTEN 3 [3]: 18.0%
- % Inhibition, HAPTEN 1 [4]: 79.3%
- IC50 for hapten 1 relative to compound 1 ([4]; compared with IC50 against compound 1): approximately five times lower
- IC50 [4]: 1140 nM
- reactivity of hapten 1 antibodies (in words) [4]: micromolar

Structure (SMILES): CCCCCn1cc(C(=O)NC(C(=O)OC)C(C)C)c2ccccc21 (centres unmarked) [Compound 3, MMB-PICA]
- % Inhibition, HAPTEN 2 [1]: 15.2%
- % Inhibition, HAPTEN 4 [2]: 71.0%
- IC50 [2]: 1260 nM
- binding by hapten 4 antibodies (in words) [2]: bind
- % Inhibition, HAPTEN 3 [3]: 91.8%
- IC50 [3]: 38 nM
- binding by hapten 3 antibodies (in words) [3]: micromolar to sub-micromolar
- % Inhibition, HAPTEN 1 [4]: 0.0%

Structure (SMILES): COC(=O)C(NC(=O)c1cn(CCCCCF)c2ccccc12)C(C)C (centres unmarked) [Compound 4]
- % Inhibition, HAPTEN 2 [1]: 19.9%
- % Inhibition, HAPTEN 4 [2]: 54.3%
- IC50 [2]: 6690 nM
- binding by hapten 4 antibodies (in words) [2]: bind
- % Inhibition, HAPTEN 3 [3]: 69.0%
- IC50 [3]: 744 nM
- binding by hapten 3 antibodies (in words) [3]: micromolar to sub-micromolar
- % Inhibition, HAPTEN 1 [4]: 8.8%

Structure (SMILES): CCCCCn1nc(C(=O)NC(C(=O)OC)C(C)C)c2ccccc21 (centres unmarked) [Compound 5, MMB-PINACA]
- % Inhibition, HAPTEN 2 [1]: 25.5%
- % Inhibition, HAPTEN 4 [2]: 85.5%
- IC50 [2]: 334 nM
- binding by hapten 4 antibodies (in words) [2]: bind
- % Inhibition, HAPTEN 3 [3]: 82.6%
- IC50 [3]: 269 nM
- binding by hapten 3 antibodies (in words) [3]: micromolar to sub-micromolar
- % Inhibition, HAPTEN 1 [4]: 6.9%

Structure (SMILES): COC(=O)C(NC(=O)c1nn(CCCCCF)c2ccccc12)C(C)C (centres unmarked) [Compound 6, 5F-AMB]
- % Inhibition, HAPTEN 2 [1]: 28.7%
- % Inhibition, HAPTEN 4 [2]: 63.9%
- IC50 [2]: 2660 nM
- binding by hapten 4 antibodies (in words) [2]: bind
- % Inhibition, HAPTEN 3 [3]: 57.4%
- IC50 [3]: 3320 nM
- binding by hapten 3 antibodies (in words) [3]: micromolar to sub-micromolar
- % Inhibition, HAPTEN 1 [4]: 16.8%

Structure (SMILES): COC(=O)C(NC(=O)c1nn(Cc2ccc(F)cc2)c2ccccc12)C(C)C (centres unmarked) [Compound 7, AMB-FUBINACA]
- % Inhibition, HAPTEN 2 [1]: 30.7%
- % Inhibition, HAPTEN 4 [2]: 77.7%
- IC50 [2]: 966 nM
- binding by hapten 4 antibodies (in words) [2]: sub-micromolar
- % Inhibition, HAPTEN 3 [3]: 76.0%
- IC50 [3]: 299 nM
- binding by hapten 3 antibodies (in words) [3]: sub-micromolar
- % Inhibition, HAPTEN 1 [4]: 11.1%

Structure (SMILES): CCCCCn1cc(C(=O)Oc2cccc3ccccc23)c2ccccc21 [Compound 8, NAPIC]
- % Inhibition, HAPTEN 2 [1]: 31.5%
- reactivity of hapten 2 antibodies (in words) ([1]; day 35 sera): little to no reactivity
- % Inhibition, HAPTEN 4 [2]: 11.0%
- % Inhibition, HAPTEN 3 [3]: 19.2%
- % Inhibition, HAPTEN 1 [4]: 13.6%
- reactivity of hapten 1 antibodies (in words) [4]: no reactivity
